In patent publication US20090048301A1 (IMCLONE SYSTEMS INCORPORATED, priority 2003, published 2009):

Tests used:
bovine tubulin = assay: In vitro tubulin polymerization assay (turbidity at 340 nm); format: biochemical; conditions: 10 μM compound, 30 minute data point, vs 1% DMSO control
In short: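 Percent inhibition derives from turbidity (340 nm) at 30 min relative to 1% DMSO controls, read every minute at 37° C. Polymerization mix: 3 mg/ml bovine tubulin, <3% MAPs, in PIPES pH 7 G-PEM with 1 mM GTP, 1 mM MgCl2, 5% glycerol; enhancers also detectable.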

[1] = system: A431 human cancer cell line; assay: Sulphorhodamine B (SRB) growth inhibition assay; format: cell-based; conditions: A-431, A431 cells, 48 hours, read-out: SRB Assay: μM required to inhibit tumor cell growth by 50% (GI50)
Protocol: The in vitro growth inhibition activity of the compounds was determined by the Sulphorhodamine B assay. (Skehan P, Storeng R, Scudiero D, Monks A, McMahon J, Vistica D, Warren J T, Bokesch H, Kenney S, Boyd M R. New colorimetric cytotoxicity assay for anticancer-drug screening. J Natl Cancer Inst 82, 1107-1112, 1990). Sulphorhodamine B binds to basic amino acids and stains proteins which can be eluted and detected spectrophotometically by measuring absorbance at 515 nm. The absorbance was indicative of the total protein content of the cells fixed to the walls of the plate well at a given time by trichloroacetic acid, which is a measure of the viable cell concentration.
The in vitro growth inhibition activity of the compounds was determined using a Sulphorhodamine B assay. See, Skehan et al., “New colorimetric cytotoxicity assay for anticancer-drug screening,” J. Natl. Cancer Inst., 82, 1107-1112, (1990). Sulphorhodamine B binds to basic amino acids and stains proteins which can be eluted and detected spectrophotometically by measuring absorbance at 515 nm. The absorbance indicates the total protein content of the cells fixed to the walls of the plate well at a given time by trichloroacetic acid, which is a measure of the viable cell concentration.
The reagents used in the assay can be purchased from commercial sources and include Sulphorhodamine B 0.4% (w/v) in 1% (v/v) acetic acid (Sigma Cat#S-1402); trichloroacetic acid 50% (w/v) in deionized water, working solution (Sigma Cat#T-9159); and trizma base (Tris) 10 mM working solution, pH 7.5 (Sigma Cat#T-7693).
The procedure was cared out over four days. In Day 1, the cells were seeded in a seed 10,000 cells/100 μL/well in 96 well plate in duplicates as per template. Also, seed cells in extra plate for time zero (To plate). Thereafter, the cells were incubated for 24 hours at 37° C. with 5% CO2.
On Day 2, the test compound was added to the cells at five log doses from 100 μM to 0.01 μM (Volume of addition=100 μL in 1% DMSO for all compound concentrations, Control treatment=1% DMSO).
The compounds were prepared by weighing the test compounds in 1.5 ml eppendorf tubes and calculating the volume of DMSO to be added to bring the concentration of the compound to 20 mM. Thereafter, a 20 mM stock was made and diluted by four 10 fold dilutions in DMSO to get 2, 0.2, 0.02 and 0.002 mM solutions. Each solution was diluted 100 times (10 μL to 1 ml medium) and a further addition to the culture plate (100 μL) to half the concentration of cells was made. The final well concentration for 20 mM stock was 100 μM and similarly with other test concentrations.
The cells were incubated for 48 hours at 37° C. with 5% CO2 and terminated by adding 50 μL of 50% cold trichloroacetic acid (10% to final). Thereafter, the cells were incubated for one hour at 4° C.
On Day 4, the cells were fixed to the wells by the addition of 50 μL of 50% cold trichloroacetic acid (10% to final) and incubated for 1 hour at 4° C. The supernatant was discarded by force inverting the plate into the sink followed by washing thrice with tap water and the plates are then air-dried. 100 μL SRB (0.4% in 1% acetic acid) was added to each well and the plates were incubated for 10 minutes at room temperature. Unbound dye was removed by force inverting the plate into the sink and washing thrice with 1% acetic acid. Thereafter, the plates were allowed to air dry.
Bound SRB was solubilized with 100 μL of 10 mM Tris, pH 7.4 and the absorbance was measured at a wavelength of 515 nm.
A sample set of calculations was performed as follows. The percentage growth was calculated by T-To/C-To X 100 if T>To and T-To/To X 100 if T<To, wherein T is Test OD (with compound), C is Control OD, To is Time Zero OD (cell growth at the time of drug addition). […]

Structure (SMILES)	GI50 [1] [µM]	Tubulin Assay: percent inhibition at 10 μM based on 30 minute data (bovine tubulin) [%]
COc1ccc(Nc2nnc(-c3cccnc3Nc3ccc4c(c3)OCO4)[nH]2)cc1 [Compound 8, Benzo[1,3]dioxol-5-yl-{3-[5-(4-methoxy-phenylamino)-4H-[1,2,4]triazol-3-yl]-pyridin-2-yl}-amine]	0.3	100
COc1ccc(OC)c(Nc2nnc(-c3cccnc3Nc3ccc4c(c3)OCO4)[nH]2)c1 [Compound 9, Benzo[1,3]dioxol-5-yl-{3-[5-(2,5-dimethoxy-phenylamino)-4H-[1,2,4]triazol-3-yl]-pyridin-2-yl}-amine]	25	47
COc1ccc(Nc2nnc(-c3cccnc3Nc3ccc4c(c3)OCO4)[nH]2)c(OC)c1 [Compound 10, Benzo[1,3]dioxol-5-yl-{3-[5-(2,4-dimethoxy-phenylamino)-4H-[1,2,4]triazol-3-yl]-pyridin-2-yl}-amine]	20	73
COc1cc(Nc2ncccc2-c2nnc(Nc3ccc(OC)cc3OC)[nH]2)cc(OC)c1 [Compound 12, (3,5-Dimethoxy-phenyl)-{3-[5-(2,4-dimethoxy-phenylamino)-4H-[1,2,4]triazol-3-yl]-pyridin-2-yl}-amine]	20	46
c1cnc(NCc2ccc3c(c2)OCO3)c(-c2nnc(Nc3ccc4c(c3)OCO4)[nH]2)c1 [Compound 33, {3-[5-(Benzo[1,3]dioxol-5-ylamino)-4H-[1,2,4]triazol-3-yl]-pyridin-2-yl}-benzo[1,3]dioxol-5-ylmethyl-amine]	10	60
COc1cc(Nc2ncccc2-c2nnc(Nc3cc(Cl)cc(Cl)c3)[nH]2)cc(OC)c1 [Compound 53, {3-[5-(3,5-Dichloro-phenylamino)-4H-[1,2,4]triazol-3-yl]-pyridin-2-yl}-(3,5-dimethoxy-phenyl)-amine]	6	44
CS(=O)(=O)c1ccc(-c2nnc(-c3cccnc3NCCCN3CCCC3=O)[nH]2)cc1 [Compound 75, 1-(3-{3-[5-(4-Methanesulfonyl-phenyl)-4H-[1,2,4]triazol-3-yl]-pyridin-2-ylamino}-propyl)-pyrrolidin-2-one]	80	60
Fc1cccc(-c2nnc(-c3cccnc3NCc3ccc4c(c3)OCO4)[nH]2)c1 [Compound 82, Benzo[1,3]dioxol-5-ylmethyl-{3-[5-(3-fluoro-phenyl)-4H-[1,2,4]triazol-3-yl]-pyridin-2-yl}-amine]	20	30
FC(F)(F)c1ccc(-c2nnc(-c3cccnc3NCc3ccc4c(c3)OCO4)[nH]2)cc1 [Compound 84, Benzo[1,3]dioxol-5-ylmethyl-{3-[5-(4-trifluoromethyl-phenyl)-4H-[1,2,4]triazol-3-yl]-pyridin-2-yl}-amine]	2.5	27
FC(F)(F)c1ccc(-c2nnc(-c3cccnc3NCc3cccnc3)[nH]2)cc1 [Compound 86, Pyridin-3-ylmethyl-{3-[5-(4-trifluoromethyl-phenyl)-4H-[1,2,4]triazol-3-yl]-pyridin-2-yl}-amine]	2.2	31
CS(=O)(=O)c1ccc(-c2nnc(-c3cccnc3NCc3cccnc3)[nH]2)cc1 [Compound 89, {3-[5-(4-Methanesulfonyl-phenyl)-4H-[1,2,4]triazol-3-yl]-pyridin-2-yl}-pyridin-3-ylmethyl-amine]	5	85
Fc1ccc(OCc2nnc(-c3cccnc3NCc3ccc4c(c3)OCO4)[nH]2)cc1 [Compound 109, Benzo[1,3]dioxol-5-ylmethyl-{3-[5-(4-fluoro-phenoxymethyl)-4H-[1,2,4]triazol-3-yl]-pyridin-2-yl}-amine]	30	41
COc1cc(Nc2ncccc2-c2nnc(Nc3ccc(OC)c(OC)c3)o2)cc(OC)c1 [Compound 178, (3,5-Dimethoxy-phenyl)-{3-[5-(3,4-dimethoxy-phenylamino)-[1,3,4]oxadiazol-2-yl]-pyridin-2-yl}-amine]	0.3	40
FC(F)(F)Oc1ccc(Nc2nnc(-c3cccnc3NCc3ccc4c(c3)OCO4)o2)cc1 [Compound 179, Benzo[1,3]dioxol-5-ylmethyl-{3-[5-(4-trifluoromethoxy-phenylamino)-[1,3,4]oxadiazol-2-yl]-pyridin-2-yl}-amine]	30	28
COc1ccc(Nc2nnc(-c3cccnc3NCc3ccc4c(c3)OCO4)o2)cc1OC [Compound 180, Benzo[1,3]dioxol-5-ylmethyl-{3-[5-(3,4-dimethoxy-phenylamino)-[1,3,4]oxadiazol-2-yl]-pyridin-2-yl}-amine]	1.5	32

Now from value to compound, other results behind:

GI50 [1] [µM]	Structure (SMILES)	Tubulin Assay: percent inhibition at 10 μM based on 30 minute data (bovine tubulin) [%]
2.5	COc1cc(Nc2nnc(-c3cccnc3NCc3ccc4c(c3)OCO4)[nH]2)cc(OC)c1 [Compound 16, Benzo[1,3]dioxol-5-ylmethyl-{3-[5-(3,5-dimethoxy-phenylamino)-4H-[1,2,4]triazol-3-yl]-pyridin-2-yl}-amine]	41
20	COc1cc(CNc2ncccc2-c2nnc(-c3cccc(OC)c3)[nH]2)cc(OC)c1 [Compound 79, (3,5-Dimethoxy-benzyl)-{3-[5-(3-methoxy-phenyl)-4H-[1,2,4]triazol-3-yl]-pyridin-2-yl}-amine]	32
8	COc1cccc(-c2nnc(-c3cccnc3NCc3ccc4c(c3)OCO4)[nH]2)c1 [Compound 80, Benzo[1,3]dioxol-5-ylmethyl-{3-[5-(3-methoxy-phenyl)-4H-[1,2,4]triazol-3-yl]-pyridin-2-yl}-amine]	46
30	COc1cc(OC)cc(-c2nnc(-c3cccnc3NCc3cccnc3)[nH]2)c1 [Compound 87, {3-[5-(3,5-Dimethoxy-phenyl)-4H-[1,2,4]triazol-3-yl]-pyridin-2-yl}-pyridin-3-ylmethyl-amine]	85
10	c1ccc(-c2nnc(Nc3ccc4c(c3)OCO4)[nH]2)c(NCc2ccncc2)c1 [Compound 111, Benzo[1,3]dioxol-5-yl-(5-{2-[(pyridin-4-ylmethyl)-amino]-phenyl}-4H-[1,2,4]triazol-3-yl)-amine]	70
2.75	FC(F)(F)c1cccc(-c2nnc(-c3ccccc3NCc3cccnc3)[nH]2)c1 [Compound 130, Pyridin-3-ylmethyl-{2-[5-(3-trifluoromethyl-phenyl)-4H-[1,2,4]triazol-3-yl]-phenyl}-amine]	47
100	COc1cc(OC)cc(-c2nnc(-c3ccccc3NCc3ccncc3)[nH]2)c1 [Compound 132, {2-[5-(3,5-Dimethoxy-phenyl)-4H-[1,2,4]triazol-3-yl]-phenyl}-pyridin-4-ylmethyl-amine]	46
